Data taken from US20090136522A1, “Multivalent Immunogen” (priority 2006, published 2009).
“Also recorded” adds a separate entry of the source.

System: 4E10 mAb
Assay: Binding of chromophore labeled tetramers to 4E10 antibody coated beads
Details: chromophore on tetramer-SA complex
Text: FIGS. 6A-6F: Binding of chromophore labeled tetramers to 4E10 antibody coated beads. In all panels, shaded curves show binding to control Ig-coated beads and solid lines show binding to 4E10 coated beads. FIG. 6A. 2F5-epitope tetramers labeled with APC. FIG. 6B. 2F5-epitope tetramers labeled with PE-AF680. FIG. 6C. V3-epitope tetramers labeled with PE-AF750. FIG. 6D. Scrambled 2F5-epitope tetramers labeled with APC. FIG. 6E. Scrambled 2F5-epitope tetramers labeled with PE-AF680. FIG. 6F. Scrambled V3-epitope tetramers labeled with PE-AF750. Thus, 4E10 mAb binds to phycoerythrin on any tetramer-SA complex.
The specificity of the tetramers can be determined using a panel of murine hybridoma cell lines that produce either antibodies that react with the 2F5 epitope (5A9), the 4E10 epitope of HIV gp41 (10B12) or the V3 region of HIV gp120 (7B9 or F39F). Using these cell lines, the B cell tetramer can be bound to the cell line and assayed for binding by, for example, flow cytometry (FIGS. 4A and 4B). Alternatively, the 2F5, 4E10 anti-MPER and 7B9 anti-V3 mAbs can be conjugated to, for example, a […], and the specificity of tetramer binding to the beads determined (FIG. 5).
Studies conducted have shown that a mimetope of the MPER 4E10 region is phycoerythrin, in that 4E10 mAb coated beads bound tetramer labeled with phycoerythrin but not allophycocyanin (APC) (FIG. 6). […]

Row | Substance | binding to 4E10 mAb coated beads
1 | allophycocyanin [allophycocyanin (APC)] | not
2 | phycoerythrin | binds; also recorded: bound
